Here are results for 9 compounds from paper PMC6331789, “Phytochemicals from Ruta graveolens Activate TAS2R Bitter Taste Receptors and TRP Channels Involved in Gustation and Nociception” (Molecules, 2015).

Like-named read-outs stand apart in the source and are kept apart here. Bounds are passed on as bounds.

Common to all, as to type: cell-based
One assay addresses T1, TRPM5 (Homo sapiens, UniProt Q9NZQ8).
T1 construct: expressed in transfected cells
T1 sequence (Q9NZQ8 1-1165): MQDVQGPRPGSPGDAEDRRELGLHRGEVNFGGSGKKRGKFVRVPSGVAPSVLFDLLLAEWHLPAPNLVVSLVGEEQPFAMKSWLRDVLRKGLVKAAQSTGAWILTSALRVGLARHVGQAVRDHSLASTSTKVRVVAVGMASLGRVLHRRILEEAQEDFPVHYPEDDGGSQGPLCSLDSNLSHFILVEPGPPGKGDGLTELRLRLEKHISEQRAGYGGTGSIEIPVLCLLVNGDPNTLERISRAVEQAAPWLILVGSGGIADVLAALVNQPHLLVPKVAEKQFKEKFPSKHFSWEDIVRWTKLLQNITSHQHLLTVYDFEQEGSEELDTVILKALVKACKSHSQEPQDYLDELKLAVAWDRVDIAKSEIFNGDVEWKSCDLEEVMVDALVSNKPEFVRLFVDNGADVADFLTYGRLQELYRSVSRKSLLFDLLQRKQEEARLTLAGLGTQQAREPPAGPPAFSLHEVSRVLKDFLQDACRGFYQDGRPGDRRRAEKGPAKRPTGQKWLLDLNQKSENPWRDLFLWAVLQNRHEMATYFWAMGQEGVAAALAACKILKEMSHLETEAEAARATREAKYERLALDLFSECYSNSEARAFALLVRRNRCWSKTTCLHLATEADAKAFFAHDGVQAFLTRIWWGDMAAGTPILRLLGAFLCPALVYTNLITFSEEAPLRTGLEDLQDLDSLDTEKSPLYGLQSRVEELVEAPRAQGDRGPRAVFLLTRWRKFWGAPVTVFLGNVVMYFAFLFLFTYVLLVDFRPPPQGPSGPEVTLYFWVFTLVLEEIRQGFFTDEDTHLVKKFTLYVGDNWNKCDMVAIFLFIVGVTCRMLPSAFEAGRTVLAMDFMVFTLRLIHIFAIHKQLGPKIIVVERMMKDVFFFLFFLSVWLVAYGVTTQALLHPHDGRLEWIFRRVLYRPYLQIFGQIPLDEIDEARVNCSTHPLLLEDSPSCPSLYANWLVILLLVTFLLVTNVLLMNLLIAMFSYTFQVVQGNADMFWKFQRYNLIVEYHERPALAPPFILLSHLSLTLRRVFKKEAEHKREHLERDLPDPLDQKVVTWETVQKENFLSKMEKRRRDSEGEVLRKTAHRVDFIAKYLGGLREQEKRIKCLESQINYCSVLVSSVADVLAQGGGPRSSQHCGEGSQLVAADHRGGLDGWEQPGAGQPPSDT
In words: In vitro membrane potential dye assay (FLIPR) on HEK293T cells stably overexpressing TRPM5. Conditions: for TRPM5 screening result: single dose, qualitative. The source says:
(§1) Pure phytochemicals were submitted to in vitro assays with a platform of twenty cloned receptors of the bitter taste TAS2R family and four receptors of the TRP family related to the perception of taste and somatosensory sensations. All experiments have been repeated three times, each time with four replicates. […] For simplicity, only those bitter taste receptors having reproducible positive assay, namely TASR10, 14 and 49, are reported (Table 1).
(§2) For those compounds showing activity on one or more receptor(s), the concentration/response curves were plotted and the EC50 calculated.
(§3) For the biological tests, several compounds were purchased as references from different suppliers (Sigma Aldrich, ChromaDex, Irvine, CA, USA, and Tocris Bioscience, Bristol, UK) and dissolved in assay buffer (130 mM NaCl, 5 mM KCl, 1 mM MgCl2, 2 mM CaCl2, 5 mM NaHCO3 and 20 mM HEPES, pH 7.4) or in a mixture of assay buffer and DMSO, never exceeding a final DMSO concentration of 0.5% (v/v) to avoid toxic effects and possible artefacts on transfected cells.
(§4) All human TAS2R and G15Gi1 cDNAs were produced as reported in Bassoli et al. cDNAs for human TRPA1-M5-M8-V1-V4 were cloned into a pcDNA6 expression vector (Invitrogen-Thermo Fisher, Waltham, MA, USA).
(§5) All experiments were performed using HEK293T cells (ATCC).
(§6) For TRP platform experiments, cells were cultured in MEM/EBSS medium (ECB2071L EuroClone, Milan, Italy) plus 10% (v/v) fetal bovine serum (FBS) (26400-044 Gibco, Karlsruhe, Germany) and 1% (v/v) Pen/Strep 10K/10K stock (17-602E Lonza, Basel, Switzerland). Stable cell lines were generated overexpressing each TRP channel, and clones were selected with 500 µg/mL of G418 (ant-gn-5 Invivogen, Karlsruhe, Germany). To analyze TRP receptor responses, cells were plated at a concentration of 20,000 cells/well in 384-well plates (GR-4330 Twin Helix srl, Milan, Italy). Cellular responses were measured 24 h after seeding.
(§7) For TRPM5 experiments, cells were loaded 24 h after seeding with a Membrane Potential Dye (R8034 MDC) solution in assay buffer according to the manufacturer’s instructions and incubated at 37 °C for 1 h before acquisition. All experiments were performed using a fluorometric imaging plate reader (FLIPR^TETRA, Molecular Devices equipped with ICCD Camera from Stanford Photonics, INC, (Palo Alto, CA, USA) and kinetics were visualized with Molecular Devices’ Screenworks 3.0 (Sunnyvale, CA, USA).
(§8) For the calculation of concentration-response curves, responses were calculated as the difference between maximal and minimal relative fluorescence unit (RFU) values in a selected time window (11–60 s) and were normalized to the basal well fluorescence (Time Point 1, before compound injection) in order to compensate for differences in cell density (∆F/F0). All of the experiments have been repeated three times, each time with four replicates. All of the results are averages of at least four replicates. Raw data are available in Supplementary Material, Figures S3–S6.

The target of another assay is T2, TAS2R10 (Homo sapiens, UniProt Q9NYW0).
T2 construct: expressed in transfected cells; host or cells: HEK293T
T2 sequence (Q9NYW0 1-307): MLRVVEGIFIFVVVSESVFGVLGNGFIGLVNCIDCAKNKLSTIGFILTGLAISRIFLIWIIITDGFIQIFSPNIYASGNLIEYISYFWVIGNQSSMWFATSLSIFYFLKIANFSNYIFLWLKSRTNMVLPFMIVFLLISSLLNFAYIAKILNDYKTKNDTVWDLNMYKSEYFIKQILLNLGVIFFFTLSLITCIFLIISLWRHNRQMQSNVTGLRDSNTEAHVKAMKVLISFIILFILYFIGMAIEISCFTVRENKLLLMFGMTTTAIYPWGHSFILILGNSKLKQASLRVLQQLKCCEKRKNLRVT
In words: In vitro calcium imaging assay on cloned TAS2R10 in transfected HEK293T cells. Conditions: for TAS2R10 screening result: single dose, qualitative.
Source text: as §1, §2, §3, §4, §5
For the bitter platform experiments, cells were cultured, transfected and analyzed as previously described.
For the bitter platform experiments, data analyses were performed as previously described.
as §8

A further assay has as its target T3, TRPV1 (Homo sapiens, UniProt Q8NER1).
T3 construct: expressed in transfected cells
In words: In vitro Fluo8-NW calcium assay (FLIPR) on HEK293T cells stably overexpressing TRPV1. Conditions: for TRPV1 screening result: single dose, qualitative.
Source text: as §1, §3, §4, §5, §6
For TRPA1-M8-V1-V4 experiments, a solution of Fluo8-NW calcium-sensitive dye (36316 AAT BioQuest, Sunnyvale, CA, USA) was prepared using the assaybuffer and diluting the kit components 1:2 according to the manufacturer’s instructions. Twenty-four hours after seeding, cells were incubated one hour at RT, loaded with 40 µL of Fluo8-NW solution for each well and incubated again for one hour at RT before data acquisition.
as §7, §8

The mark [1] stands for this setting: concentration/response curve, values with ≥ estimated, curve did not saturate, read-out: EC50 TAS2R10.

T3 sequence (Q8NER1 whole entry): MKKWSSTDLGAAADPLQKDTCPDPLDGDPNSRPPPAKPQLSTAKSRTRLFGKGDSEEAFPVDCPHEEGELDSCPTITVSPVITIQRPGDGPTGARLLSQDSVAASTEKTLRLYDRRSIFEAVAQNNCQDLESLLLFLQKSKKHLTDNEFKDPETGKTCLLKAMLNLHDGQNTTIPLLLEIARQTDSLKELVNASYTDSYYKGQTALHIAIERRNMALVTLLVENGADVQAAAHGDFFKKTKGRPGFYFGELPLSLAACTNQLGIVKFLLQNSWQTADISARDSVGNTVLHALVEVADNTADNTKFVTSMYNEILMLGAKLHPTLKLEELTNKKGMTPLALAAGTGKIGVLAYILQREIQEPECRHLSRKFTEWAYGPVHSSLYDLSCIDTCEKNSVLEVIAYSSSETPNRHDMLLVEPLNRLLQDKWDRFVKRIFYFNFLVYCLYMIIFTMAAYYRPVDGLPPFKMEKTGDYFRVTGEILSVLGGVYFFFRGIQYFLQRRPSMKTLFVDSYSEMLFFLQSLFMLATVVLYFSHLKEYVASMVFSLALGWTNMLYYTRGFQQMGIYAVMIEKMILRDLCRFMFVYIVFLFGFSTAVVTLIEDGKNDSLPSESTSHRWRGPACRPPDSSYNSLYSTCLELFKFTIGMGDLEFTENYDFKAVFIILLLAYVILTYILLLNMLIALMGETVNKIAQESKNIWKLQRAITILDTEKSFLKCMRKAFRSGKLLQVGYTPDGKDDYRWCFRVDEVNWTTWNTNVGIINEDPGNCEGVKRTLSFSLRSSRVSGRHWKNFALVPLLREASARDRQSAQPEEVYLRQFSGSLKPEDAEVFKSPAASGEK

For the compound `C[C@@H]1O[C@@H](OC[C@H]2O[C@@H](Oc3c(-c4ccc(O)c(O)c4)oc4cc(O)cc(O)c4c3=O)[C@H](O)[C@@H](O)[C@@H]2O)[C@H](O)[C@H](O)[C@H]1O` [Compound 1, rutin], the TRPM5 screening result at TRPM5 is recorded as “−”. Also, at TAS2R10, the TAS2R10 screening result was “−”. On TRPV1, the TRPV1 screening result is “−”.
By EC50 is commonly meant the concentration at which the effect is half-maximal. Take `C=CC(C)(C)c1cc2cc3c(cc2oc1=O)OC(C(C)(C)OC(C)=O)C3` (centres unmarked) [Compound 2, rutamarin]: at TRPM5, the “Activity on TRPM5 (in words)” value is “activated” and the TRPM5 screening result was “+”. On TRPM5 (concentration/response curve, values with ≥ estimated), the EC50 was not below 26.7 µM. The TAS2R10 screening result at TAS2R10 is recorded as “−”. Also, at TRPV1, the “Activity on TRPV1 (in words)” value is given as “agonist” and the TRPV1 screening result was “+”.
As to `COc1c2ccoc2cc2oc(=O)ccc12` [Compound 3, bergapten], the TRPM5 screening result at TRPM5 is “−”. Moreover, on TAS2R10, the “Activity on TAS2R10 (in words)” value was “selective and strong agonist”; the TAS2R10 screening result is on record as “+++”. Further, on TAS2R10 (setting [1]), the EC50 is 2.8 µM. Further, the TRPV1 screening result on TRPV1 is recorded as “−”.
As for `COc1c2occc2cc2ccc(=O)oc12` [Compound 4, xanthotoxin], on TRPM5, the TRPM5 screening result is recorded as “−”. At TAS2R10, the “Activity on TAS2R10 (in words)” value is reported as “responded”, the EC50 was not below 20.6 µM and the TAS2R10 screening result is on record as “+”. At TRPV1, the TRPV1 screening result was “−”.
In the case of `COc1c2ccoc2c(OC)c2oc(=O)ccc12` [Compound 5, isopimpinellin], the TRPM5 screening result at TRPM5 is “−”. Also, the EC50 on TAS2R10 (setting [1]) was 12 µM. Moreover, the TAS2R10 screening result at TAS2R10 is listed as “++”. For the same compound, the TRPV1 screening result on TRPV1 is listed as “−”.
For `COc1cc2nc3occc3c(OC)c2cc1OC` [Compound 7, kokusaginin], the TRPM5 screening result on TRPM5 was “−”. For the same compound, on TAS2R10, the TAS2R10 screening result is “−”. Further, the TRPV1 screening result on TRPV1 is “−”.
`COc1ccc2c(OC)c3ccoc3nc2c1OC` [Compound 8, skimmianine]: at TRPM5, the TRPM5 screening result was “−”. Also, the TAS2R10 screening result on TAS2R10 is listed as “−”. Also, at TRPV1, the TRPV1 screening result is recorded as “−”.
For the compound `CCCCCCCCCC(C)=O` [Compound 9, 2-undecanone], the TRPM5 screening result at TRPM5 is “−”. Besides, on TAS2R10, the TAS2R10 screening result is “−”. In addition, the TRPV1 screening result on TRPV1 is “−”.
Regarding `CCCCCCCC(C)=O` [Compound 10, 2-nonanone], the TRPM5 screening result at TRPM5 is “−”. On TAS2R10, the TAS2R10 screening result is recorded as “−”. The TRPV1 screening result at TRPV1 is listed as “−”.
